Test results published in paper PMC5566576, “Identification and Functional Characterization of Small Alarmone Synthetases in Corynebacterium glutamicum” (Frontiers in Microbiology, 2017).

Experiments:
RelP*Cg [1] = biological target: T1, RelP*Cg (Corynebacterium glutamicum, UniProt Q8NR76); assay: phosphohydrolase activity, HPLC-MS product detection (ADP and GDP); assay type: biochemical; conditions: 4 mM ATP, 4 mM GTP, 50 mM Tris-HCl pH 8.0, 5 mM MgCl2, 30°C, 4 h; no alarmone formed
T1 construct: gene Cgl1177
T1 sequence (Q8NR76 entry or part of it): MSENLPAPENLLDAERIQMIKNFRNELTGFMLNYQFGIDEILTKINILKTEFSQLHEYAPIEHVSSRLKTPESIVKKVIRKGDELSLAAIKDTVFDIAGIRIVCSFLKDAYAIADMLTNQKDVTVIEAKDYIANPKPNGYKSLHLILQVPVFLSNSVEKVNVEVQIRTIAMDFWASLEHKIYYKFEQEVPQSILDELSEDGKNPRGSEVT

RelCg [2] = biological target: T2, RelCg (Corynebacterium glutamicum, UniProt O87331); assay: pyrophosphokinase assay, HPLC-MS product detection (pppGpp); assay type: biochemical; conditions: 4 mM ATP, 4 mM GTP, 50 mM Tris-HCl pH 8.0, 5 mM MgCl2, 30°C, 4 h
T2 construct: gene relA
T2 sequence (O87331 1-760): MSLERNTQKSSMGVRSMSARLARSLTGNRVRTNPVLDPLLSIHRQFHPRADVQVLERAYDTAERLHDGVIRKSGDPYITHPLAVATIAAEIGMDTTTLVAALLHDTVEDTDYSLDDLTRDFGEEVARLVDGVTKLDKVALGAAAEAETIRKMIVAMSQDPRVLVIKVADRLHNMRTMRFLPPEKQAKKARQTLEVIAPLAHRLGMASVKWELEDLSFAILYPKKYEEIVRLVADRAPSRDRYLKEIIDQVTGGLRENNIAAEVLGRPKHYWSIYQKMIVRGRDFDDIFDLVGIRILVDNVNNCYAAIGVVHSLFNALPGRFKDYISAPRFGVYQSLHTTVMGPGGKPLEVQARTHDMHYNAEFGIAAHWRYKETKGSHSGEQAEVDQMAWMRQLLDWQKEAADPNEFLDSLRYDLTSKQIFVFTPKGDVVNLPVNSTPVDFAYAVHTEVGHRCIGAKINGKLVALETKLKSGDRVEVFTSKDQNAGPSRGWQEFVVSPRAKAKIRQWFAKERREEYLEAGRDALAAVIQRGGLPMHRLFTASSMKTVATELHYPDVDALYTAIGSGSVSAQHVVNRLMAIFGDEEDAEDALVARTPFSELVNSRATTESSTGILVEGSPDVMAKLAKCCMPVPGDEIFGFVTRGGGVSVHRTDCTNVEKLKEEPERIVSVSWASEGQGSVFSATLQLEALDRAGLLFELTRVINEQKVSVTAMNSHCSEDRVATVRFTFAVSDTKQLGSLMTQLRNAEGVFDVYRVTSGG

RelP*Cg [3] = biological target: T1, RelP*Cg; assay: kinase activity, HPLC-MS product detection (ADP and GTP); assay type: biochemical; conditions: 4 mM ATP, 4 mM GDP, 50 mM Tris-HCl pH 8.0, 5 mM MgCl2, 30°C, 4 h; no pyrophosphokinase activity
RelCg [4] = biological target: T2, RelCg; assay: pyrophosphokinase assay, HPLC-MS product detection (ppGpp); assay type: biochemical; conditions: 4 mM ATP, 4 mM GDP, 50 mM Tris-HCl pH 8.0, 5 mM MgCl2, 30°C, 4 h; GDP also phosphorylated to GTP
[5] = substrate: Nc1ncnc2c1ncn2[C@@H]1O[C@H](COP(=O)(O)OP(=O)(O)OP(=O)(O)O)[C@@H](O)[C@H]1O; assay: pyrophosphokinase assay, HPLC-MS quantification of AMP; half-maximal specific activity; assay type: biochemical, Corynebacterium glutamicum; conditions: 25 mM GTP, 50 mM HEPES-Na pH 7.0, 200 mM NaCl, 5 mM MgCl2, 30°C, 60 min, 250 nM enzyme
[6] = substrate: Nc1nc2c(ncn2[C@@H]2O[C@H](COP(=O)(O)OP(=O)(O)OP(=O)(O)O)[C@@H](O)[C@H]2O)c(=O)[nH]1; assay: pyrophosphokinase assay, HPLC-MS quantification of AMP, polynomial fit; assay type: biochemical, Corynebacterium glutamicum; conditions: 25 mM ATP, 50 mM HEPES-Na pH 7.0, 200 mM NaCl, 5 mM MgCl2, 30°C, 60 min, 250 nM enzyme, substrate excess inhibition at 25-50 mM
[7] = substrate: Nc1nc2c(ncn2[C@@H]2O[C@H](COP(=O)(O)OP(=O)(O)O)[C@@H](O)[C@H]2O)c(=O)[nH]1; assay: as above; assay type: biochemical, Corynebacterium glutamicum; conditions: 25 mM ATP, 50 mM HEPES-Na pH 7.0, 200 mM NaCl, 5 mM MgCl2, 30°C, 60 min, 250 nM enzyme, substrate excess inhibition at 25-50 mM

Molecule: Nc1nc2c(ncn2[C@@H]2O[C@H](COP(=O)(O)OP(=O)(O)OP(=O)(O)O)[C@@H](O)[C@H]2O)c(=O)[nH]1 [GTP]
- phosphohydrolase activity, HPLC-MS product detection (ADP and GDP) (RelP*Cg [1]): containing RelP^*Cg as well as ATP and GTP as substrates, significant amounts of ADP and GDP
- pyrophosphokinase assay, HPLC-MS product detection (pppGpp) (RelCg [2]): pyrophosphorylation of GDP and GTP to ppGpp and pppGpp was detected

Molecule: Nc1nc2c(ncn2[C@@H]2O[C@H](COP(=O)(O)OP(=O)(O)O)[C@@H](O)[C@H]2O)c(=O)[nH]1 [GDP]
- kinase activity, HPLC-MS product detection (ADP and GTP) (RelP*Cg [3]): RelP^*Cg possesses a kinase activity, since ADP and GTP were produced
- pyrophosphokinase assay, HPLC-MS product detection (ppGpp) (RelCg [4]): pyrophosphorylation of GDP and GTP to ppGpp and pppGpp was detected

B1: RelSCg (Corynebacterium glutamicum ATCC 13032) (protein)
chain: MSDNTLSQFGSYYHEFRRAHPMADVEFLLAIEELLTDGGVTFDRVTTRIKEWSSLKAKARKRRNDGSLIYPDPRKDIHDMIGVRITTYHSTEIPVALKVLQDSFIVHKSVDKAAETRISGGFGYGSHHLILEVDDTSDDLQDYKGLVFEVQVRTVLQHAWAEFEHDIRYKRADVSNPEDFSAEVDRMFTLAAGLIELADQQFDQIAALKETSRVADESVELTAETLPGVLAMLIGNRFPRPRSTNYRFLEDILVANSITSVVQLRELLNPTDIEVLLKVMNYRFHPGQIRIIDDLLLKRFGQSHIDATVATDSQPLNAKRHRQLKRKLELMTQAHLVEPPN
- K0.5 [5]: 0.8 mM
- Km [6]: 4.1 mM
- Km [7]: 6.1 mM
